Source: patent US9949980B2, “Drugs to prevent HPV infection” (Wisconsin Alumni Research Foundation, priority 2008, dated 2018)
Like-named read-outs stand apart in the source and are kept apart here.

How the values were obtained:
[1] = system: HPV16 pseudoviruses; assay: microbe, parasite or virus in culture; assay type: cell-based; conditions: Human papillomavirus 16, HEK-293T, 48 h
Description: (§1) FIG. 1. High throughout screen (HTS) for identifying inhibitors of HPV infection. Shown is a schematic showing basic steps in the HTS. […] Briefly, HPV16 pseudoviruses containing the SEAP reporter genes are analyzed for their ability to infect as judged by the levels of secreted alkaline phosphatase in the tissue culture supernatant (light grey arrows). Cell viability was assessed in parallel on the same wells (dark grey arrows). In the specific HTS carried out in this study, the compounds were added at 3 uM/1% DMSO final concentration (black arrow) 4 hours prior to infection.
(§2) After incubation at 37° C. for 24 hrs, 35 μL of media was removed. […] Cells were incubated at 37° C. for 48 hrs. 2.5 μL of media was collected for SEAP assay using a PHOSPHA-LIGHT chemiluminescent alkaline phosphatase assay (Applied Biosystems). Cell viability was determined using the CellTiter Glo Luminescent Cell Viability Assay™ (Promega).

[2] = in vitro; conditions: human
Description: as §1, §2

[3] = system: HPV16 pseudovirus; assay: Luciferase assay: HPV16 pseudovirus with renilla luciferase reporter (HPV16wpA-RL); conditions: renilla luciferase reporter behind HPV16 promoter
Description: The protocol for the secondary screen was identical to that of the primary screen with the exception that all volumes were scaled up by a factor of four. RL activity was measured using the Renilla Luciferase Assay System (Promega).

[4] = read-out: Infectivity (SEAP Activity), 3 μM HTS standard concentration, 293T cells, 48 hrs
[5] = read-out: Infectivity vs. viability, 3 μM HTS standard concentration, ratio infectivity/viability
[6] = read-out: Primary HTS SEAP vs Viability, Table 2, first pair of columns (c2)
[7] = read-out: Primary HTS SEAP vs Viability, Table 2, second pair of columns (c4)
[8] = Primary HTS Viability % Average

| Compound | activity at 3 µM [1, 4] [%] | activity at 3 µM [1, 5] [%] | activity at 3 µM [1, 6] [%] | activity at 3 µM [1, 7] [%] | viability at 52 h, 3 μM [2, 8] [%] | viability at 52 h, 3 μM ([2]; Viability (CelTiter Glow)) [%] | Luciferase assay RL % Average [3] [%] |
| --- | --- | --- | --- | --- | --- | --- | --- |
| CCOC(=O)CCc1c(C)nc2c(C)c(-c3ccccc3)nn2c1O [Compound 1, ethyl 3-(7-hydroxy-3,5-dimethyl-2-phenylpyrazolo[1,5-a]pyrimidin-6-yl)propanoate] | 22.9 | 24.5 | 13.1 | 32.6 | 85 | 93.4 | 64.85 |
| Cc1cc(O)n2c(nc3ccccc32)c1C(=O)O [Compound 2, 1-hydroxy-3-methylpyrido[1,2-a]benzimidazole-4-carboxylic acid] | 19.7 | 19.6 | 13.5 | 25.9 | – | 101 | 75.09 |
| Cc1nc2ccccn2c1C(=O)NC(C)c1ccccc1 (centres unmarked) [Compound 3, 2-methyl-N-(1-phenylethyl)imidazo[1,2-a]pyridine-3-carboxamide] | 20.8 | 20.3 | 18.7 | 23 | 105 | 103 | 71.67 |
| Cc1ccccc1C(=O)N1CC(C)CC(C)C1 (centres unmarked) [Compound 5, 3,5-dimethyl-1-(2-methylbenzoyl)piperidine] | 22.9 | 21.2 | 29.5 | 16.2 | 102 | 108 | 102.39 |
| CCN1C(=O)c2cccc3c(NC(=O)c4ccc(S(=O)(=O)N(C)C)cc4)ccc1c23 [Compound 6, 4-[(dimethylamino)sulfonyl]-N-(1-ethyl-2-oxo-1,2-dihydrobenzo[cd]indol-6-yl)benzamide] | 26.8 | 26.6 | 24.4 | 29.3 | – | 101 | 71.67 |
| Cc1ccccc1OCCc1c(C)n[nH]c1C [Compound 7, 3,5-dimethyl-4-[2-(2-methylphenoxy)ethyl]-1H-pyrazole] | 36.9 | 39.7 | 32 | 41.8 | – | 92.9 | 68.26 |
| O=C(N(c1cccc(C(F)(F)F)c1)C1C=CS(=O)(=O)C1)C(F)(F)F (centres unmarked) [Compound 8, N-(1,1-dioxido-2,3-dihydro-3-thienyl)-2,2,2-trifluoro-N-[3-(trifluoromethyl)phenyl]acetamide] | 27.7 | 29.4 | 37.3 | 18.1 | 96.4 | 94.4 | 177.47 |
| CN1C(=O)C(c2c[nH]c3ccccc23)(c2c[nH]c3ccccc23)c2ccccc21 [Compound 10, 1′-methyl-1H,1″H-3,3′:3′,3″-terindol-2′(1′H)-one] | 38.8 | 37 | 34.4 | 43.2 | – | 105 | 30.72 |
| O=C1NC(=S)SC1=Cc1ccc(Oc2ccc([N+](=O)[O-])cn2)cc1 [Compound 12, 5-{4-[(5-nitro-2-pyridinyl)oxy]benzylidene)-2-thioxo-1,3-thiazolidin-4-one] | 28.3 | 21.5 | 39.4 | 17.2 | – | 132 | 105.80 |
| O=S1(=O)C=CC(Nc2cccc(C(F)(F)F)c2)C1 (centres unmarked) [Compound 16, (1,1-dioxido-2,3-dihydro-3-thienyl)[3-(trifluoromethyl)phenyl]amine] | 28.4 | 30.6 | 36.1 | 20.6 | 98.2 | 92.9 | 146.76 |
| COc1cccc(NC(=O)c2ccc(C)c([N+](=O)[O-])c2)c1 [Compound 17, N-(3-methoxyphenyl)-4-methyl-3-nitrobenzamide] | 43 | 49.6 | 32.9 | 53.2 | – | 86.8 | 92.15 |
| COC(=O)C1=C(C)NC2=C(C(=O)c3ccccc32)C1c1ccc(-c2ccccc2C(=O)O)o1 (centres unmarked) [Compound 6177037, 2-{5-[3-(methoxycarbonyl)-2-methyl-5-oxo-4,5-dihydro-1H-indeno[1,2-b]pyridin-4-yl]-2-furyl}benzoic acid] | 64 | 58.4 | – | – | – | 110 | – |
| COc1ccc(N(CC(=O)Nc2ccc(C(C)C)cc2)S(=O)(=O)c2ccccc2)cc1Cl [Compound 6186930, N~2~-(3-chloro-4-methoxyphenyl)-N~1~-(4-isopropylphenyl)-N~2~-(phenylsulfonyl)glycinamide] | 37.9 | 33.5 | – | – | – | 113 | – |
